Converted amounts (≈) assume the structure as drawn.
Conditions: for aqueous solubility: pH 6.8

| MDR1-MDCK efflux ratio | intrinsic clearance, human liver microsomes [mL/min/kg] | intrinsic clearance, rat liver microsomes [mL/min/kg] | aqueous solubility [µg/mL] | fraction unbound, human plasma | fraction unbound, rat plasma | Compound |
| --- | --- | --- | --- | --- | --- | --- |
| 1.97 | ≤ 4.74 | 83.2 |  |  |  | COc1cc(C)cc(OC)c1-c1ccc(-c2nn[nH]n2)cc1 |
| 43.4 | ≤ 4.74 | 16.2 | 69.5 (≈ 197 µM) |  |  | Cc1nccc(-c2cccc(NCC(=O)NCC(=O)N3CCCC3)c2)n1 |
| 2.86 | 302 | 1390 | 3.37 (≈ 9.2 µM) |  |  | Cc1ccc(C)c(OCC(=O)N2CCC(C(=O)Nc3ccccc3)CC2)c1 |
| 60.4 | 7.53 | 103 | 5.95 (≈ 15.8 µM) | 0.004 | 0.00181 | COc1ccccc1-c1cc(NC(=O)c2cccc(N3CCNC3=O)c2)[nH]n1 |
| 0.574 | ≤ 4.74 | 443 | 40.2 (≈ 163 µM) |  |  | CCCC(=O)N1CCC(c2cccc(C)n2)CC1 |
| 0.985 | ≤ 4.74 | ≤ 10.7 | 40.2 (≈ 139 µM) |  |  | O=C(Nn1cnc2ccccc21)c1cc(Cl)ccc1F |
| 13.5 | ≤ 4.74 | ≤ 10.7 | 25.6 (≈ 108 µM) |  |  | Cc1n[nH]c(C)c1CCC(=O)N1CCOCC1 |
| 10.2 | 18.7 | ≤ 10.7 |  |  |  | COc1cc2nn(CCC(C)(C)O)cc2cc1NC(=O)c1ccn(C(F)F)n1 |
| 106 | 5.41 | 88.5 |  |  |  | [2H]c1nc(C)nc([2H])c1-c1cc(NC[C@@H](C)c2cccc3c(C(=O)NC)ccnc23)ncn1 |
|  | 47.1 | 158 |  |  |  | CC(C)c1noc(-c2ccc(N)cc2)n1 |
| 1.54 |  |  | 0.41 (≈ 1.07 µM) |  |  | O=C(O)c1ccc(-c2c[nH]c3ncc(-c4ccccc4)cc23)cc1C1CCCC1 |
| 50.6 | 26.8 | 344 |  | 0.0109 | 0.00726 | C=CC(=O)Nc1cccc(Oc2nc(Nc3ccc(N4CCN(C)CC4)c(F)c3)nc3[nH]ccc23)c1 |
| 3.42 | ≤ 4.74 | ≤ 10.7 | 35.4 (≈ 80.2 µM) | 0.0931 | 0.174 | C[C@@H]1c2nnn(-c3ncc(F)cn3)c2CCN1C(=O)c1cccc(C(F)(F)F)c1Cl |
|  | 7.61 | 22.2 |  |  |  | CCCS(=O)(=O)Nc1ccc(F)c(C(=O)c2c[nH]c3ncc(Cl)cc23)c1F |
| 0.698 | 45.8 |  |  | 0.0601 |  | CC(C)(C)c1ccc(C(O)CN2CCC(O)(c3ccc4c(c3)OCO4)CC2)cc1 (stereo not given) |
| 1.37 | 5 | 664 | 36 (≈ 109 µM) |  |  | COc1ccc(-n2c(Cn3cnc(C#N)n3)nc3ccccc32)cc1 |
| 2.51 | 15.4 | 222 | 48.6 (≈ 174 µM) |  |  | CN(Cc1ccncc1)Cc1cc2ccccc2nc1O |
| 28.4 | 4.94 | ≤ 10.7 | 56.8 (≈ 153 µM) |  |  | CN1CCC(NS(=O)(=O)C2CN(C(=O)c3cccc(Cl)c3)C2)CC1 |
| 0.435 | 28.6 | 1740 |  |  |  | CN(C)CCSc1nnnn1-c1ccc(Br)cc1 |
| 13.3 | 158 | 473 | 54 (≈ 124 µM) |  |  | CCn1cc(CN2CCC(c3nc(N(C)C)ncc3-c3ccc(OC)cc3)CC2)c(C)n1 |

| MDR1-MDCK efflux ratio | intrinsic clearance, human liver microsomes [mL/min/kg] | intrinsic clearance, rat liver microsomes [mL/min/kg] | aqueous solubility [µg/mL] | fraction unbound, human plasma | fraction unbound, rat plasma | Compound |
| --- | --- | --- | --- | --- | --- | --- |
| 1.91 | 8.76 | 109 | 25.8 (≈ 74.8 µM) |  |  | O=C(Nc1ccc(N2CCOCC2)nc1)N1CCc2sccc2C1 |
|  | 10.6 | ≤ 10.7 |  |  |  | NS(=O)(=O)C#Cc1ccccc1 |
| 93.8 | ≤ 4.74 | 16.6 | 28.6 (≈ 93.1 µM) |  |  | CCCn1cnnc1Cn1ccnc1-c1ccc2occc2c1 |
| 0.843 | 9.15 | 130 |  |  |  | CCc1nnc(N2CC(N(C)C)C2)c(C#N)c1CC |
| 0.782 | 63.9 | 5650 |  |  |  | Cc1cc(C(=O)N(C)CCCC2CCCC2)cc(C)n1 |
|  | ≤ 4.74 | ≤ 10.7 |  |  |  | CC(C)c1ccc2occ(CC(=O)O)c2c1 |
| 0.744 |  |  |  |  | 0.347 | CC(C)CC(NC(=O)C(O)C(N)Cc1ccccc1)C(=O)O (stereo not given) |
|  | ≤ 4.74 | ≤ 10.7 |  |  |  | CC(C)(C)c1nc(O)c2nnn(C3CCNCC3)c2n1 |
| 0.45 |  |  | 0.22 (≈ 0.702 µM) |  |  | c1ccc(Cc2ccccc2-c2nnc(-c3cccnc3)o2)cc1 |
| 1.89 | ≤ 4.74 | ≤ 10.7 | 56.9 (≈ 217 µM) |  |  | CC(C)(C)C(=O)N1CCC(NS(C)(=O)=O)CC1 |
| 1.33 | ≤ 4.74 | 72.8 | 35.1 (≈ 103 µM) |  |  | Fc1ccc(F)c(-c2nc(C3CCOCC3)nn2-c2cccnc2)c1 |
| 2.84 | ≤ 4.74 | 36.7 |  |  |  | Cc1cc(Cn2cnc(C#N)c2C#N)c2ccccc2n1 |
| 0.725 | 46.7 | 106 |  |  |  | Cc1cc(C)n2nc(C)c(C(=O)NCC3CC3)c2n1 |
|  | 26.9 | 269 | 20 (≈ 84.7 µM) |  |  | Cc1ccc(-c2nc(-c3ccncc3)n[nH]2)cc1 |
| 7.27 | 256 | 1670 | 1.63 (≈ 4.07 µM) |  |  | O=C(Cn1nc2n(c1=O)-c1ccccc1C1=NCCN12)N1CCCc2ccccc21 |
| 41.1 | 8.92 | 39.3 | 20.9 (≈ 52.1 µM) |  |  | COc1ccc(N2N=C(C)/C(=C(\C)Nc3ccc(S(N)(=O)=O)cc3)C2=O)cc1 |
| 0.712 | 94.2 | 670 | 6.32 (≈ 17.8 µM) |  |  | Cc1cc(N)n(-c2ncnc3sc(C)c(-c4ccc(Cl)cc4)c23)n1 |
| 0.606 | 31.9 | 620 |  |  |  | Fc1ccc(CN2CCCN(c3ccc4nnnn4n3)CC2)cc1 |
| 2.67 |  |  | 0.25 (≈ 0.53 µM) |  |  | CCOc1nc(-c2ccc(Cl)c(Cl)c2)n(-c2cccc(NC(=O)c3ccc(F)cc3)c2)n1 |

| Compound | MDR1-MDCK efflux ratio | intrinsic clearance, human liver microsomes [mL/min/kg] | intrinsic clearance, rat liver microsomes [mL/min/kg] | aqueous solubility [µg/mL] | fraction unbound, human plasma | fraction unbound, rat plasma |
| --- | --- | --- | --- | --- | --- | --- |
| CCCN(CCc1cccs1)[C@H]1CCc2c(O)cccc2C1 | 0.512 | 98.1 | 3810 |  |  |  |
